Reference: PMC7156458, “Synthetic biology based construction of biological activity-related library of fungal decalin-containing diterpenoid pyrones” (Nature Communications, 2020)

Target: Aβ42 (Homo sapiens, UniProt P05067)
Experiment: Th-T (thioflavin-T) assay of Aβ42 aggregation
Type: biochemical
Details: for Th-T assay plate reading, mean of three wells (Supplementary Fig. 47): source data, Ab alone and No Ab as controls

Aβ42, sequence (P05067 672-713): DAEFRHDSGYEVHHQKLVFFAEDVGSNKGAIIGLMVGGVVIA

- Th-T fluorescence, mean of three wells (Aβ42 aggregation time course, reading M117): 2.764
- Th-T fluorescence, mean of three wells (Aβ42 aggregation time course, reading M118): 2.782
- Th-T fluorescence, mean of three wells (Aβ42 aggregation time course, reading M119): 2.76
- Th-T fluorescence, mean of three wells (Aβ42 aggregation time course, reading M120): 2.773
- Th-T fluorescence, mean of three wells (Aβ42 aggregation time course, reading M121): 2.751
- Th-T fluorescence, mean of three wells (Aβ42 aggregation time course, reading M122): 2.756
- Th-T fluorescence, mean of three wells (Aβ42 aggregation time course, reading M123): 2.7381
- Th-T fluorescence, mean of three wells (Aβ42 aggregation time course, reading M124): 2.734
- Th-T fluorescence, mean of three wells (Aβ42 aggregation time course, reading M125): 2.771
- Th-T fluorescence, mean of three wells (Aβ42 aggregation time course, reading M126): 2.764
- Th-T fluorescence, mean of three wells (Aβ42 aggregation time course, reading M127): 2.744
- Th-T fluorescence, mean of three wells (Aβ42 aggregation time course, reading M128): 2.737
- Th-T fluorescence, mean of three wells (Aβ42 aggregation time course, reading M129): 2.759
- Th-T fluorescence, mean of three wells (Aβ42 aggregation time course, reading M130): 2.729
- Th-T fluorescence, mean of three wells (Aβ42 aggregation time course, reading M131): 2.75
- Th-T fluorescence, mean of three wells (Aβ42 aggregation time course, reading M132): 2.778
- Th-T fluorescence, mean of three wells (Aβ42 aggregation time course, reading M133): 2.76
- Th-T fluorescence, mean of three wells (Aβ42 aggregation time course, reading M134): 2.744
- Th-T fluorescence, mean of three wells (Aβ42 aggregation time course, reading M135): 2.723
- Th-T fluorescence, mean of three wells (Aβ42 aggregation time course, reading M136): 2.752
- Th-T fluorescence, mean of three wells (Supplementary Fig. 47, reading M137): 2.732
- Th-T fluorescence, mean of three wells (Supplementary Fig. 47, reading M138): 2.752
- Th-T fluorescence, mean of three wells (Supplementary Fig. 47, reading M139): 2.7362
- Th-T fluorescence, mean of three wells (Supplementary Fig. 47, reading M140): 2.723
- Th-T fluorescence, mean of three wells (Supplementary Fig. 47, reading M141): 2.765
- Th-T fluorescence, mean of three wells (Supplementary Fig. 47, reading M142): 2.731
- Th-T fluorescence, mean of three wells (Supplementary Fig. 47, reading M143): 2.798
- Th-T fluorescence, mean of three wells (Supplementary Fig. 47, reading M144): 2.748
- Th-T fluorescence, mean of three wells (Supplementary Fig. 47, reading M145): 2.777
- Th-T assay plate reading, mean of three wells (Supplementary Fig. 47) (measurement M1): 0.3186
- Th-T assay plate reading, mean of three wells (Supplementary Fig. 47) (measurement M2): 0.3159
- Th-T assay plate reading, mean of three wells (Supplementary Fig. 47) (measurement M3): 0.3554
- Th-T assay plate reading, mean of three wells (Supplementary Fig. 47) (measurement M4): 0.4086
- Th-T assay plate reading, mean of three wells (Supplementary Fig. 47) (measurement M5): 0.4658
- Th-T assay plate reading, mean of three wells (Supplementary Fig. 47) (measurement M6): 0.5438
- Th-T assay plate reading, mean of three wells (Supplementary Fig. 47) (measurement M7): 0.6121
- Th-T assay plate reading, mean of three wells (Supplementary Fig. 47) (measurement M8): 0.6677
- Th-T assay plate reading, mean of three wells (Supplementary Fig. 47) (measurement M9): 0.6972
- Th-T assay plate reading, mean of three wells (Supplementary Fig. 47) (measurement M10): 0.7395
- Th-T assay plate reading, mean of three wells (Supplementary Fig. 47) (measurement M11): 0.7934
- Th-T assay plate reading, mean of three wells (Supplementary Fig. 47) (measurement M12): 0.8591
- Th-T assay plate reading, mean of three wells (Supplementary Fig. 47) (measurement M13): 0.9703
- Th-T assay plate reading, mean of three wells (Supplementary Fig. 47) (measurement M14): 1.131
- Th-T assay plate reading, mean of three wells (Supplementary Fig. 47) (measurement M15): 1.366
- Th-T assay plate reading, mean of three wells (Supplementary Fig. 47) (measurement M16): 1.644
- Th-T fluorescence, mean of three wells (reading M17, Supplementary Fig. 47 source data): 1.91
- Th-T fluorescence, mean of three wells (time-course reading M97, Supplementary Fig. 47 source data): 2.7952
- Th-T fluorescence, mean of three wells (time-course reading M98, Supplementary Fig. 47 source data): 2.787
- Th-T fluorescence, mean of three wells (time-course reading M99, Supplementary Fig. 47 source data): 2.818
- Th-T fluorescence, mean of three wells (time-course reading M100, Supplementary Fig. 47 source data): 2.783
- Th-T fluorescence, mean of three wells (time-course reading M101, Supplementary Fig. 47 source data): 2.764
- Th-T fluorescence, mean of three wells (time-course reading M102, Supplementary Fig. 47 source data): 2.765
- Th-T fluorescence, mean of three wells (time-course reading M103, Supplementary Fig. 47 source data): 2.763
- Th-T fluorescence, mean of three wells (time-course reading M104, Supplementary Fig. 47 source data): 2.782
- Th-T fluorescence, mean of three wells (time-course reading M105, Supplementary Fig. 47 source data): 2.776
- Th-T fluorescence, mean of three wells (time-course reading M106, Supplementary Fig. 47 source data): 2.782
- Th-T fluorescence, mean of three wells (time-course reading M107, Supplementary Fig. 47 source data): 2.786
- Th-T fluorescence, mean of three wells (time-course reading M108, Supplementary Fig. 47 source data): 2.803
- Th-T fluorescence, mean of three wells (time-course reading M109, Supplementary Fig. 47 source data): 2.779
- Th-T fluorescence, mean of three wells (time-course reading M110, Supplementary Fig. 47 source data): 2.789
- Th-T fluorescence, mean of three wells (time-course reading M111, Supplementary Fig. 47 source data): 2.786
- Th-T fluorescence, mean of three wells (time-course reading M112, Supplementary Fig. 47 source data): 2.79
- Th-T fluorescence, mean of three wells (time-course reading M113, Supplementary Fig. 47 source data): 2.795
- Th-T fluorescence, mean of three wells (time-course reading M114, Supplementary Fig. 47 source data): 2.781
- Th-T fluorescence, mean of three wells (time-course reading M115, Supplementary Fig. 47 source data): 2.739
- Th-T fluorescence, mean of three wells (time-course reading M116, Supplementary Fig. 47 source data): 2.771
Structure (SMILES): C=C1CCC2C(C)(CCC=C(C)C)C(O)CCC2(C)C1Cc1c(O)c(C)c(C)oc1=O (stereo not drawn) [Compound 4]
